# Measured values: patent publication US20200247897A1, “THERAPEUTIC ANTIBODIES BASED ON MUTATED IGG HEXAMERS” (GENMAB B.V., priority 2017, published 2020)
# Tests used:
# [1] = tested on: DLD-1; experiment: Drug combination screen (ATPlite, Synergy Score), DLD-1; conditions: compound in combination with IgG1-hDR5-01-G56T-E430G + IgG1-hDR5-05-E430G; DLD-1; 120 hour ATPlite, 6x6 matrix
# [2] = tested on: SNU-C2B; experiment: Drug combination screen (ATPlite, Synergy Score), SNU-C2B; conditions: compound in combination with IgG1-hDR5-01-G56T-E430G + IgG1-hDR5-05-E430G; SNU-C2B; 72 hour ATPlite, 6x6 matrix
# [3] = tested on: LS-411N; experiment: Drug combination screen (ATPlite, Synergy Score), LS-411N; type: cell-based, human; conditions: compound in combination with IgG1-hDR5-01-G56T-E430G + IgG1-hDR5-05-E430G; LS-411N; 72 hour ATPlite, 6x6 matrix
# [4] = tested on: HCT 116; experiment: Drug combination screen (ATPlite, Synergy Score), HCT 116; conditions: compound in combination with IgG1-hDR5-01-G56T-E430G + IgG1-hDR5-05-E430G; HCT 116; 120 hour ATPlite, 6x6 matrix
# [5] = tested on: SW480; experiment: Drug combination screen (ATPlite, Synergy Score), SW480; type: cell-based, human; conditions: compound in combination with IgG1-hDR5-01-G56T-E430G + IgG1-hDR5-05-E430G; SW480; 72 hour ATPlite, 6x6 matrix
SMILES,Synergy Score DLD-1 [1],Synergy Score SNU-C2B [2],Synergy Score LS-411N [3],Synergy Score HCT-116 [4],Synergy Score SW480 [5]
CCc1cc(Nc2nccc(-c3c(-c4ccc(OC)c(C(=O)Nc5c(F)cccc5F)c4)nc4ccccn34)n2)c(OC)cc1N1CCC(N2CCN(S(C)(=O)=O)CC2)CC1 [GSK1904529A],1.4,2.7,6,0.2,2.2
Nc1ccn([C@@H]2O[C@H](CO)[C@@H](O)C2(F)F)c(=O)n1 [Gemcitabine],20.3,18.5,5.7,12.2,31.1
Cn1c2ccccc2c2c3c(c4c5ccccc5n(CCC#N)c4c21)CNC3=O [Go 6976],2.9,1.7,1.9,0.9,3.1
CNC(=O)c1ccc(-c2cnc3ncc(Cc4ccc5ncccc5c4)n3n2)cc1F [INCB28060],0.2,0.4,0,0.1,0
C[C@H](Nc1ncnc2nc[nH]c12)c1cc2cccc(Cl)c2c(=O)n1-c1ccccc1 [IPI-145],0,1,0.2,0,0.1
COc1cc(C(=O)O)ccc1NC(=O)[C@@H]1N[C@@H](CC(C)(C)C)[C@](C#N)(c2ccc(Cl)cc2F)[C@H]1c1cccc(Cl)c1F [Idasanutlin],6.3,10.4,16.3,3.2,6.1
Cn1cc(-c2ccc3nnc(C(F)(F)c4ccc5ncccc5c4)n3n2)cn1 [JNJ-38877605],0.1,0.1,0.1,0,0
Cc1cc(NC(=O)c2cccc(NC(=O)/C=C/CN(C)C)c2)ccc1Nc1nccc(-c2cccnc2)n1 [JNK-IN-8],0.2,1.1,0.1,0,0.4
Nc1cccc2c1CN(C1CCC(=O)NC1=O)C2=O (stereo not shown) [Lenalidomide],0,0.2,0.1,0,0
COCCNCc1ccc(-c2cc3nccc(Oc4ccc(NC(=S)NC(=O)Cc5ccc(F)cc5)cc4F)c3s2)nc1 [MGCD-265],0.2,3.1,0.7,0.1,0.5
Cc1ccc(NC(=O)c2ccc(CN3CCN(C)CC3)cc2)cc1Nc1nc(-c2cccnc2)cs1 [Masitinib],0.6,1.7,1.4,0.3,1.9
C[C@H]1C[C@@H]2[C@H]([C@@H](O)C[C@@]3(C)[C@H]2CC[C@]3(O)C(=O)CO)[C@@]2(C)C=CC(=O)C=C12 [Methylprednisolone],0,0.6,0,0,0
C[C@]1(O)C[C@@H](c2nc(-c3ccc4ccc(-c5ccccc5)nc4c3)c3c(N)nccn32)C1 [OSI-906],0.5,1,1.7,0.1,3.5
COC1=CC(c2cc3ccccc3[nH]2)=N/C1=C\c1[nH]c(C)cc1C [Obatoclax],6.1,4.7,22.8,1.6,11.8
